Reference: article PMC13252604, “First Generation Proteolysis Targeting Chimeras (PROTACs) for the Treatment of Progeria” (Advanced Science, 2026)

Target: T1, progerin (Homo sapiens, UniProt P02545)
T1 construct: endogenous in cells; host or cells: HGADFN167 human HGPS fibroblasts (Progeria Research Foundation)
T1 sequence (P02545 1-614 isoform P02545-6): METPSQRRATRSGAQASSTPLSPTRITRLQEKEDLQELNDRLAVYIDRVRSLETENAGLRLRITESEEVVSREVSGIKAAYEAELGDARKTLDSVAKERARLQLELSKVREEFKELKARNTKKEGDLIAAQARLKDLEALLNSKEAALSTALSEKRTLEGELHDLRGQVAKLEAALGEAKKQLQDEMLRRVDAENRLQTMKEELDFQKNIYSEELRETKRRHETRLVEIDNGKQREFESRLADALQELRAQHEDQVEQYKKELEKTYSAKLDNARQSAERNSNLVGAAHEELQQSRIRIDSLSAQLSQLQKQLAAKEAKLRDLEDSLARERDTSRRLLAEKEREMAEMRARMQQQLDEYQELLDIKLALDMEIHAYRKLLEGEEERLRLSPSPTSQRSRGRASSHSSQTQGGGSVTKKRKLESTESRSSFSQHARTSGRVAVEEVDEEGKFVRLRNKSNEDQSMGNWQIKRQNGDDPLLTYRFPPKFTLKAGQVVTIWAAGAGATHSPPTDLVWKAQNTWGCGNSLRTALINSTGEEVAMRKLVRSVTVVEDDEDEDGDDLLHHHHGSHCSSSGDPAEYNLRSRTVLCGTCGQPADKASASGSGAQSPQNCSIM
Test: Progerin quantification, immunoblot in human Lmna^G608G/G608G fibroblasts
Type: cell-based
Conditions: human Lmna^G608G/G608G patient-derived fibroblasts, vs vehicle
From the text: FIGURE 6 (A) Representative cropped immunoblots and progerin quantification in human Lmna^G608G/G608G fibroblasts. MW, molecular weight (in kDa) markers. […] (B) PROTAC 2 increases cell proliferation (upper panels) and decreases the number of misshapen nuclei (lower panels). White arrows highlight selected misshapen nuclei. (C) PROTAC 2 decreases senescence‐associated β‐galactosidase (SA‐βgal) activity, interleukin (IL) 6, p16 and p21 senescent markers. Bar graphs show mean±sem of 2 (SA‐βgal and p21) or 3 (IL‐6 and p16) independent experiments performed in triplicate. (D) PROTAC 2 decreases phosphorylated histone 2AX (pH2AX) and increases trimethylated histone 3 (H3K9Me3) levels. (E) PROTAC 2 increases the oxygen consumption rate (OCR), ATP production and the number of healthy mitochondria in human progeroid cells. […] Data were analysed using one‐way ANOVA followed by Dunnett's post–hoc test vs vehicle (panel A) or vs G608G cells (panels B‐E). ^*, p < 0.05; ^**, p < 0.01; ^***, p < 0.001; ^****, p < 0.0001. […]
was saturated at 100 ppm. Relative STD effects were calculated by comparing the intensity of the signals in the STD-NMR spectrum with signal intensities of the reference spectrum (off-resonance). The STD signal with the highest intensity was set to 100%, a nd other STD signals were calculated accordingly. […]
Cell viability was assessed as previously described.[64] […]

CC1(C)Oc2cc3oc(=O)ccc3cc2C[C@@H]1OC(=O)CCCCCNc1cccc2c1C(=O)N(C1CCC(=O)NC1=O)C2=O (some centres unmarked) [compound 2]
progerin levels (immunoblot quantification): the most potent in human cells

CC1(C)Oc2cc3oc(=O)ccc3cc2C[C@@H]1OC(=O)CCCCC(=O)Oc1ccc2c(c1)CCCN2C(=O)CCl [compound 12]
progerin levels (immunoblot quantification): exhibited significant activity in human cells
